Holding throughout (assay): NCI tumour cell line growth inhibition, 48 h
The test system of test [1] is HCT-15 colon.
The test system of test [2] is HCT-116 colon.
In test [3] the test system is NCI-H226 lung.
The test system of test [4] is NCI-H460 lung.
Test [5] concerns MALME-3M melanoma.
Test [6] relates to SNB-19 CNS.
The subject of test [7] is 786-0 renal.
For test [8], the system named is MDA-MB-231 breast.
Test [9] has as its system BT-549 breast.
For test [10], the system named is PC-3 prostate.

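Test compounds were applied to cells in 96-well plates for 48 hours at 5 doses. GI50 is the concentration that inhibits growth by half. TGI is the concentration that stops growth completely.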 Some results are limits rather than exact numbers.

Among the data in PubChem BioAssay (NCI) are TGI and GI50 values, retold here.

With `O=C(COC(=O)c1cccc2c(=O)c3ccccc3[nH]c12)Nc1ccc(S(=O)(=O)Nc2ncccn2)cc1`, the TGI is above 100 µM in [1]; above 100 µM in [2]; above 100 µM in test [3]; above 100 µM in test [4]; above 100 µM in test [5]; 93.2 µM in [6]. The TGI in [7] is above 100 µM.

Take `COc1ccc(/C=C2\CCc3ccccc3C2=O)cc1OC`: the TGI in [1] was 45.5 µM; in test [2], 36.7 µM; in [4], above 100 µM; in test [5] it was above 100 µM; in test [6], above 100 µM; in test [7], above 100 µM.

With `CC(=O)OC1(C#N)CC2OC1C1N=NN(C(=O)OC(C)(C)C)C21` (stereo not drawn), the TGI is 22.5 µM in [1]; 15.5 µM in [2]; above 100 µM in test [3]; above 100 µM in [4]; above 68.2 µM in test [5]; above 100 µM in test [6]. In test [7], the TGI was above 100 µM.

Consider `Cc1ccccc1C[P+](c1ccccc1)(c1ccccc1)c1ccccc1`, for which the GI50 in [1] is 27.9 µM; in [2] it was 0.896 µM; in test [3] it was 3.18 µM; in test [8] it was 2.04 µM; in test [9] it was 2.7 µM; in [4], 1.73 µM. The results for the GI50 in test [5], in test [6] and in test [7] were 4.72 µM, 2.07 µM and 4.23 µM, respectively. The TGI in test [1] was above 100 µM; in test [2], above 100 µM; in test [3] it was above 100 µM; in [8], above 100 µM; in test [9] it was 71.7 µM; in test [4], 12.9 µM. For the same molecule, the TGI in test [5], in test [6] and in test [7] was above 100 µM throughout.

As to `COC(=O)c1ccc(/C=C/S(=O)(=O)c2ccccc2)cc1`, the TGI in test [1], in test [2], in test [3], in [4], in test [5] and in [6] was above 100 µM each time. Moreover, the TGI in test [7] was above 100 µM.

With `COC(=O)C1=C(O)c2cc3c(cc2[C@H](c2cc(OC)c(OC)c(OC)c2)C1)OCO3`, the TGI in [1], in [2], in test [3], in test [4], in [5] and in test [6] was above 100 µM throughout. The TGI in test [7] is above 100 µM.

As to `CCOc1ccc(N=Cc2ccc3ccccc3n2)cc1`, the TGI in test [1], in test [2], in test [3], in test [4], in test [5] and in test [6] was above 100 µM each time. In addition, the TGI in test [7] is above 100 µM.

On to `Cc1ccc(-c2cc(=O)c3cc(C)c(C)c(C(=O)O)c3o2)cc1[N+](=O)[O-]`, for which the TGI in test [1], in [2], in test [3], in [4], in test [5] and in [6] was above 100 µM throughout. This molecule came in with a TGI in test [7] above 100 µM.

On to `O=c1c(-c2nc3ccccc3[nH]2)cc2ccccc2n1Cc1cn(Cc2ccccc2Cl)nn1`, for which the GI50 in [3] is 2.3 µM; in test [8], 1.71 µM; in test [10], 2.6 µM; in [4], 2.01 µM; in test [5], 1.62 µM; in [6] it was 4.32 µM. Besides, in test [7], the GI50 was 1.66 µM. Also, the TGI in [3] is 6.99 µM; in test [8], 3.79 µM; in test [10], 7.5 µM; in test [4] it was 3.88 µM; in [5], 3.65 µM; in test [6], 28.3 µM. The molecule also came in with a TGI in [7] of 3.27 µM.

As for `COc1ccc2c(c1OC)C(C=C(c1ccccc1)c1ccccc1)CN(C)C2` (stereo not drawn), the TGI is 33 µM in [1]; 20.7 µM in test [2]; 98.6 µM in [3]; 31.9 µM in [4]; 38.1 µM in test [5]; above 100 µM in [6]. This molecule showed a TGI in test [7] of 39.5 µM.

Turning to `Fc1ccc2c(c1)cc1ccc3cccc4ccc2c1c34`, the TGI in test [2], in test [3], in [5], in test [6] and in [7] was above 100 µM each time.

Consider `CC(=O)Oc1cc(Cl)c(OC(C)=O)c2c(OC(C)=O)c(C)c(O[Si](C)(C)C(C)(C)C)cc12`, for which the TGI was 20.3 µM in test [1]; 13.6 µM in [2]; 16.5 µM in [4]; 25.7 µM in [6]; 28.1 µM in test [7].

`CC(CCC(=O)O)c1ccc(Br)cc1` (stereo not drawn): the TGI in [1], in test [2], in test [3], in [4], in [5] and in test [6] was above 100 µM in each case. In addition, the TGI in test [7] was above 100 µM.

Take `C/C(=N\NS(=O)(=O)c1c(C)cc(C)cc1C)c1ccc[n+]([O-])n1`: the TGI in test [1] was 28.5 µM; in test [2], 25.7 µM; in test [4], above 100 µM; in test [6] it was above 100 µM; in [7], 36 µM.

In the case of `[N-]=[N+]=NC1C2CC3CC(C2)CC1C3` (stereo not drawn), the TGI in test [2], in test [3], in [4], in [5], in [6] and in test [7] was above 100 µM throughout.

In the case of `COc1ccc2c(c1)c(-c1ccc(-c3cn(C)c4ccc(OC)cc34)o1)cn2C`, the GI50 in test [1] was 4.22 µM; in test [2], 88 µM; in test [3], 23.6 µM; in test [8], 2.37 µM; in [9] it was 5.11 µM; in test [4], 9.89 µM. For the same molecule, the figures for the GI50 in test [5], in test [6] and in test [7] were 52.8 µM, 29.8 µM and above 100 µM, respectively. The TGI in test [1] is 29.7 µM; in test [2], above 100 µM; in test [3], above 100 µM; in [8] it was 22.2 µM; in [9] it was 18.2 µM; in test [4], above 100 µM. In addition, the TGI in test [5], in [6] and in test [7] was above 100 µM throughout.

`OCCCCCNc1ccnc2cc(Cl)ccc12`: the TGI in [1], in [2], in [3], in test [4], in test [5] and in test [6] was above 100 µM each time. In test [7], this molecule came in with a TGI above 100 µM.

`CC1(C)Oc2ccccc2[N+]([O-])=C1c1ccccc1`: the TGI in test [1], in test [2], in test [4], in test [5], in [6] and in [7] was above 100 µM in each case.

Regarding `Nc1nc(CC2(O)CCCCC2)cc(-c2ccccc2)n1`, the TGI is above 75.5 µM in test [1]; above 51 µM in test [2]; above 61.9 µM in test [3]; above 66 µM in [4]; above 100 µM in test [6]; 43.2 µM in test [7].

Take `CNC(=S)N(C1CCCCC1)C1CCCCC1`: the TGI in test [1], in test [2], in test [3], in test [8], in test [10] and in test [4] was above 100 µM throughout. Also, the TGI in [5], in test [6] and in test [7] was above 100 µM throughout.

In the case of `COc1c(Cl)[c]([Hg][O]C(C)=O)c(NCC(C)=O)c(OC)[c]1[Hg][O]C(C)=O`, the GI50 in [3] was 18.7 µM; in test [4], 33.2 µM; in [5], 2.7 µM; in [6], 3.53 µM; in test [7], 3.44 µM. For the same molecule, the TGI in test [3] is 43.1 µM; in test [4], above 100 µM; in test [5], 7.89 µM; in test [6], 11.2 µM; in test [7], 12.9 µM.

For `CCC(C)(C)NS(=O)(=O)c1ccccc1`, the TGI in test [1], in test [2], in [4], in test [5] and in test [7] was above 100 µM in each case.

For `N.N.NCCCCCN.O=C([O-])CC(=O)[O-].O=C([O-])CC(=O)[O-].[Pt+4].[Pt+4]`, the GI50 in test [1] is above 100 µM; in [2], above 100 µM; in test [3], above 100 µM; in [4], 17.4 µM; in test [5], above 100 µM; in [6] it was above 100 µM. In test [7], the GI50 was above 100 µM. The TGI in test [1], in test [2], in [3], in test [4], in test [5] and in test [6] was above 100 µM each time. The same molecule showed a TGI in [7] above 100 µM.

Turning to `CCOC(=O)NC(=O)c1cn(C2OC(COC(=O)CCCCCCCCC(=O)OCC3OC(n4cc(C(=O)NC(=O)OCC)c(=O)[nH]c4=O)C4OC(C)(C)OC34)C3OC(C)(C)OC32)c(=O)[nH]c1=O` (stereo not drawn), the TGI in test [1], in [2], in [3], in test [4], in test [5] and in test [6] was above 100 µM throughout. In test [7], this molecule registered a TGI above 100 µM.

Turning to `CCN(CC)/[N+]([O-])=N/OCC(C)O` (stereo not drawn), the TGI in test [1], in test [2], in test [3], in test [4], in [6] and in test [7] was above 100 µM each time.

On to `COc1cc2ccc3c4cc(OC)c(OC(C)C)cc4c[n+](C)c3c2cc1OC`, for which the TGI in test [1], in test [2], in test [3], in test [4], in test [5] and in test [6] was above 100 µM in each case. This molecule also displayed a TGI in [7] above 100 µM.

As for `Cc1nc(-n2nc(-c3ccccc3)cc2-c2ccccc2)sc1C(=O)/C=C/c1ccc(Cl)cc1`, the TGI was above 100 µM in test [1]; 42.1 µM in test [3]; 76.5 µM in test [4]; 52.5 µM in [5]; 27.4 µM in [7].

With `Cc1nc2ccccc2c(/C=C/c2ccccc2)c1C(=O)/C=C/c1ccccc1`, the GI50 in test [1] was 1.56 µM; in test [2], 1.11 µM; in test [3] it was 2.16 µM; in [8], 2.3 µM; in test [9], 1.73 µM; in test [4], 1.88 µM. Also, the results for the GI50 in test [5], in test [6] and in [7] were 1.76 µM, 1.6 µM and 1.61 µM, respectively. Also, the TGI was determined as 4.4 µM in test [1]; 2.56 µM in [2]; 5.27 µM in test [3]; 7.37 µM in test [8]; 3.67 µM in [9]; 4.88 µM in test [4]. In addition, the TGI in test [5] came out at 3.24 µM; in [6], 2.96 µM; in test [7], 3.02 µM.

In the case of `COc1cc(/C=C2\Cc3ccccc3C2=O)cc(OC)c1OC`, the TGI in test [1], in test [2], in test [3], in test [4], in test [5] and in [6] was above 100 µM in each case. The TGI in [7] is above 100 µM.

With `O=C(CC1SC(=Nc2ccccc2Cl)NC1=O)Nc1ccc(Cl)cc1` (stereo not drawn), the TGI in [1] is 30.8 µM; in test [2] it was above 100 µM; in test [4], above 100 µM; in test [5], above 100 µM; in test [6] it was above 100 µM; in [7] it was above 100 µM.

Turning to `C/C=C(\C)C(=O)N1c2ccccc2CC1c1c(C)[nH]c2ccccc12` (stereo not drawn), the TGI in test [1], in test [2], in test [3], in test [4], in test [5] and in test [6] was above 100 µM in each case. This molecule registered a TGI in test [7] above 100 µM.
